Reference: PMC8097421 (Antimicrobial Agents and Chemotherapy, 2021)
Marks after values point to notes of the source that are not given here.

Key:
[1] = human, in vivo
in vivo [2] = details: male, cynomolgus, cynomolgus monkey, po, 30 mg/kg
clinical = details: human, in vivo
[3] = Clinical observation of nonhuman primates in the PK study; type: in vivo, cynomolgus monkey; details: NHP, oral AT-527 60 mg/kg loading then 30 mg/kg every 12 h
[4] = Estimated oral bioavailability; details: in vivo, species and source not stated
[5] = parameters: method as in doi:10.1016/S0168-8278(20)31210-1; details: HCV-infected subjects, daily oral 550 mg with daclatasvir for up to 12 weeks; cited from earlier work
[6] = Steady-state plasma pharmacokinetics in nonhuman primates after oral AT-527; details: NHP plasma, oral AT-527 60 mg/kg loading then 30 mg/kg every 12 h
[7] = system: MRC-5 (human lung fibroblast) cells; details: 8 h, 10 µM
Huh-7 cells = details: human, 8 h, 10 µM
[8] = system: human bronchial epithelial (HBE) cells; details: 10 µM
[9] = male, cynomolgus monkey, in vivo
NiRAN domain of nsp12 = system: NiRAN domain of nsp12; parameters: method as in our unpublished data; details: ref our unpublished data; cited from earlier work
in vivo [10] = details: male, cynomolgus monkey; for half-life: po, 30 mg/kg
in vitro [11] = details: human, intracellular half-life (t1/2) of AT-9010
in vitro [12] = details: human, intracellular half-life (t1/2) of AT-9010; remark: listed apart in the source
[13] = system: primary human hepatocytes; details: cited from earlier work
primary NHP hepatocytes = details: cited from earlier work
[14] = system: SARS-CoV-2 (USA-WA1/2020); test: microbe, parasite or virus in culture; type: cell-based, SARS-CoV-2 (Betacoronavirus); details: SARS-CoV-2, HAE cells
in vitro [15] = details: human
HCoV-229E = test: CPE assay, HCoV-229E in BHK-21 cells; type: cell-based, HCoV-229E (Alphacoronavirus); details: Human coronavirus 229E, 72 h, 3-day incubation, MOI 0.01
Protocol: (§1) To assess whether AT-511, a 2′-fluoro-2′-methyl guanosine nucleotide prodrug (Fig. 1), had antiviral activity against a seasonal human alpha coronavirus, HCoV-229E, BHK-21 (baby hamster kidney) cells were acutely infected with the virus and exposed to serial dilutions of the drug. […] Half-maximal cytotoxicity (CC50) measured by neutral red staining of compound-treated cells in the absence of virus indicated little to no toxicity was detected from either drug up to 100 μM.
(§2) AT-511 and sofosbuvir were dissolved in DMSO at 100 mM and then diluted in growth medium to final concentrations of 100, 20, 4, and 0.8 μM (two […] replicate plates each). After BHK-21 cells were grown to confluence in 96-well plates, growth medium was replaced with fresh maintenance medium (growth medium with 1% inactivated FBS in place of 10% FBS) containing serially diluted test compound and HCoV-229E at a multiplicity of infection (MOI) of 0.01. Uninfected cells in the presence of serially diluted compound were used to assess the cytotoxicity of compounds. After a 3-day incubation at 37°C in a humidified 5% CO2 atmosphere, cell viability was determined by the 3-(4,5-dimethyl-2-thiazolyl)-2,5-diphenyl-2H-tetrazolium bromide (MTT) method ([22]). […]

[16] = Cytotoxicity in uninfected BHK-21 cells; type: cell-based; details: hamster, 3-day incubation, read-out: CPE assay CC50
Protocol: as §1, §2

C[C@@]1(F)[C@H](O)[C@@H](CO)O[C@H]1n1cnc2c(=O)[nH]c(N)nc21 [AT-273]
absorption constant (Ka), population estimate [1]: 0.45 (±0.00253) h^−1
volume of central compartment (V1), population estimate [1]: 2,070 (±146) liters
volume of peripheral compartment (V2), population estimate [1]: 1,270 (±164) liters
AUC(0-t) (in vivo [2]): 1.56 ± 0.18 µM·h
half-life (in vivo [2]): 16 h
clearance (clinical): 3130 mL/min

CNc1nc(N)nc2c1ncn2C1OC(COP(=O)(NC(C)C(=O)OC(C)C)Oc2ccccc2)C(O)C1(C)F (stereo not shown) [AT-527]
unusual or adverse clinical signs [3]: no such signs noted
bioavailability [4]: ≥ 50%
safety and tolerability [5]: safe and well tolerated

CNc1nc(N)nc2c1ncn2[C@@H]1O[C@H](CO[P@](=O)(O)N[C@@H](C)C(=O)O)[C@@H](O)[C@@]1(C)F [AT-551]
Tmax (in vivo [2]): 1 to 4 h
AUC0–12 [6]: 4.35 ± 1.77 µM·h

C[C@@]1(F)[C@H](O)[C@@H](COP(=O)(O)OP(=O)(O)OP(=O)(O)O)O[C@H]1n1cnc2c(=O)[nH]c(N)nc21 [AT-9010]
AT-9010 formed [7]: 26.5 ± 0.5 pmol/10^6 cells
AT-9010 formed (Huh-7 cells): 182 ± 6 pmol/10^6 cells
in vitro t1/2 of the TP, fold longer than in hepatocytes [8]: 4
AT-9010 lung-to-liver concentration ratio ([9]; 12 h): 1.6
AT-9010 in liver samples at 48-h postdose ([9]; 48 h): no peak corresponding to AT-9010 was detected
inhibition of NiRAN (NiRAN domain of nsp12): potent inhibitor
concentration at 12 h (in vivo [10]; AT-9010 concentration in kidney): 130 ± 40 nM
concentration at 12 h (in vivo [10]; AT-9010 concentration in liver tissue): 90 ± 30 nM
concentration at 12 h (in vivo [10]; AT-9010 concentration in lung tissue): 140 ± 110 nM
half-life (in vivo [10]; estimated half-life of AT-9010 in kidney tissue): 8.5 h
half-life (in vivo [10]; estimated half-life of AT-9010 in lung tissue): 9.4 h
half-life at 10 µM (in vitro [11]): 38 to 39 h
half-life at 10 µM (in vitro [12]): 38 to 39 h
in vitro t1/2 of AT-9010 [13]: 10 h
in vitro t1/2 of AT-9010 (primary NHP hepatocytes): 10 h

CC(C)C(=O)OC[C@H]1O[C@@H](n2ccc(NO)nc2=O)[C@H](O)[C@@H]1O [Molnupiravir]
Selectivity index (CC50/EC90) ([14]; CC50/EC90): >4.9^c
EC90 ([14]; Severe acute respiratory syndrome coronavirus 2, 120 h, 5-day incubation, read-out: VYR assay EC90): 2.8 ± 1 µM
CC50 at 5 days (in vitro [15]): > 19 µM

CC(C)OC(=O)[C@H](C)N[P@](=O)(OC[C@H]1O[C@@H](n2ccc(=O)[nH]c2=O)[C@](C)(F)[C@@H]1O)Oc1ccccc1 [Sofosbuvir]
EC50 (HCoV-229E): > 100 µM
CC50 at 3 days [16]: > 100 µM
